AC50 data for 9 molecules are collected here from ChEMBL document CHEMBL5291721, “A preclinical secondary pharmacology resource illuminates target-adverse drug reaction associations of marketed drugs” (Nat Commun, 2023).

The AC50 is the concentration giving half of the maximal activity seen. The low end stands for greater potency, the high end for weaker potency.

Assay [1] has as its target 5-hydroxytryptamine receptor 2B (Homo sapiens, UniProt P41595). It is filed as functional, cell-based.
Assay [2] concerns the target Growth hormone secretagogue receptor type 1 (Homo sapiens, UniProt Q92847).
In assay [3] the target is Glutamate receptor ionotropic, NMDA 1 (Rattus norvegicus, UniProt P35439).
Assay [4] addresses Sodium-dependent dopamine transporter (Homo sapiens, UniProt Q01959).
Assay [5] concerns the target T1, 5-hydroxytryptamine receptor 2C (Homo sapiens, UniProt P28335).
T1 sequence (P28335 whole entry): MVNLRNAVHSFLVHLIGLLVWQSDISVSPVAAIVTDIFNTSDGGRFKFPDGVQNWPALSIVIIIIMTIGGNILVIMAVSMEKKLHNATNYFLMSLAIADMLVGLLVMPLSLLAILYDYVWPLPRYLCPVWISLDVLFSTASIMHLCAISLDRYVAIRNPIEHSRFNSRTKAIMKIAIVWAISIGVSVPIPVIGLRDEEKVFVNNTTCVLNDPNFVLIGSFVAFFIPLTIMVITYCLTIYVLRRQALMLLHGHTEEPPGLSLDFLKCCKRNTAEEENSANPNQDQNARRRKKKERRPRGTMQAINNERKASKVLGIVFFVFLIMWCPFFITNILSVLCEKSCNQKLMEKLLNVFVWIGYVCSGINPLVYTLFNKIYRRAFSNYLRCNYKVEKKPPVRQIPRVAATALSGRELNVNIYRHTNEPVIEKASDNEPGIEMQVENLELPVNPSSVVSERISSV

For assay [6], the target named is T2, Alpha-2A adrenergic receptor (Homo sapiens, UniProt P08913).
T2 sequence (P08913 whole entry): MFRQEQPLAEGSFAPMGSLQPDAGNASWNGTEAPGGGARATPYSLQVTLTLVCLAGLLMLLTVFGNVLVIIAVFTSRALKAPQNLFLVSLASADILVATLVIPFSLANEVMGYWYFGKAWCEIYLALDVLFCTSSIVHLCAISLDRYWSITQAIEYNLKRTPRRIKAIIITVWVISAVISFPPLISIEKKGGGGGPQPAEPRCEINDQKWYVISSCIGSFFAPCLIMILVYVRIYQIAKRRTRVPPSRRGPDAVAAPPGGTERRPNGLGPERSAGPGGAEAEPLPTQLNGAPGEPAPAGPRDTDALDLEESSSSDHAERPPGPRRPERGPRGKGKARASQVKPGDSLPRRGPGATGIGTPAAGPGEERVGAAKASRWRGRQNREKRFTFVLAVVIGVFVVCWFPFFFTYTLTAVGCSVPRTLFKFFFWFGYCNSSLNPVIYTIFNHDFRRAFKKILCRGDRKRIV
The format is functional, cell-based.

The target in assay [7] is Histamine H3 receptor (Homo sapiens, UniProt Q9Y5N1).
Assay [8] deals with Histamine H2 receptor (Homo sapiens, UniProt P25021). It is filed as functional, cell-based.
Chain of Histamine H2 receptor (P25021 whole entry): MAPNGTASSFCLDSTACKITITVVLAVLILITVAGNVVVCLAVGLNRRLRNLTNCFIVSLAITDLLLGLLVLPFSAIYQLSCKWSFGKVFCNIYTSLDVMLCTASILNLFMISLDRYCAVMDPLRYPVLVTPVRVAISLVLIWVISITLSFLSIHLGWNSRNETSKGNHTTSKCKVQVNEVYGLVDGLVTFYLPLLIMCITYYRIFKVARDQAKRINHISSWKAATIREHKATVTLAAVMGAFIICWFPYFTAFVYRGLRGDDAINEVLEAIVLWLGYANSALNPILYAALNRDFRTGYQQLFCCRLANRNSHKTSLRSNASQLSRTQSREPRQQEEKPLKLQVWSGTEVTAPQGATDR
For assay [9], the target named is Cannabinoid receptor 1 (Homo sapiens, UniProt P21554). It is filed as functional, cell-based.
Chain of Cannabinoid receptor 1 (P21554 whole entry): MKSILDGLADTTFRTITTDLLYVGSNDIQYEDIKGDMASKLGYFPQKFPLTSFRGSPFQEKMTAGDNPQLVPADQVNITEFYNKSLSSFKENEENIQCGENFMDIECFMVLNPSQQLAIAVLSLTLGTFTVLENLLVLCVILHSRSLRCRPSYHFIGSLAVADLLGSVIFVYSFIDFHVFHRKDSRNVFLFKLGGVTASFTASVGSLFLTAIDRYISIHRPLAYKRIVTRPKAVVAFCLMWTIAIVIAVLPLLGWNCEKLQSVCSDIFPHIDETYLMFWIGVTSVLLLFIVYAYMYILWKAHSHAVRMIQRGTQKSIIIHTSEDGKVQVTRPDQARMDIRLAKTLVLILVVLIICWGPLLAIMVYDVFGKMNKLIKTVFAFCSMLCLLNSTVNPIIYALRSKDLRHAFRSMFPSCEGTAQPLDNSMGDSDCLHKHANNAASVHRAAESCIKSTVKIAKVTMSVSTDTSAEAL
Assay [10] deals with Beta-2 adrenergic receptor (Homo sapiens, UniProt P07550).
Chain of Beta-2 adrenergic receptor (P07550 whole entry): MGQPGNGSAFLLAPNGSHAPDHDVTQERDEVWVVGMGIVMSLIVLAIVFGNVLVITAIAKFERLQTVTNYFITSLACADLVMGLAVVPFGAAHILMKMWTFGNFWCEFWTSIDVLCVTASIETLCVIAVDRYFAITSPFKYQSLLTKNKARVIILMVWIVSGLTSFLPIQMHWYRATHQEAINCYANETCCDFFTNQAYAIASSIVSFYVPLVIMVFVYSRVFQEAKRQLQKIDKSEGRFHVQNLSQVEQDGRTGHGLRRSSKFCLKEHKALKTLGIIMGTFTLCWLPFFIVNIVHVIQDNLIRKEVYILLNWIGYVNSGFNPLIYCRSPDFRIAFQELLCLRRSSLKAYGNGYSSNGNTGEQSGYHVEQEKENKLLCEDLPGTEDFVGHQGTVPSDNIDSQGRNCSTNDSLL
Assay [11] concerns the target T3, Gamma-aminobutyric acid receptor subunit alpha-1 (Rattus norvegicus, UniProt P62813).
Assay [12] addresses Adenosine receptor A2a (Homo sapiens, UniProt P29274).
Assay [13] concerns the target Beta-1 adrenergic receptor (Homo sapiens, UniProt P08588). It is filed as functional.
In assay [14] the target is T3, Gamma-aminobutyric acid receptor subunit alpha-1. It is filed as functional.
Assay [15] addresses Motilin receptor (Homo sapiens, UniProt O43193).
Assay [16] has as its target cGMP-inhibited 3',5'-cyclic phosphodiesterase 3A (Homo sapiens, UniProt Q14432). It is filed as functional.
Assay [17] addresses Sodium-dependent noradrenaline transporter (Homo sapiens, UniProt P23975).
Assay [18] has as its target T4, Neuropeptide Y receptor type 1 (Homo sapiens, UniProt P25929).
T4 sequence (P25929 whole entry): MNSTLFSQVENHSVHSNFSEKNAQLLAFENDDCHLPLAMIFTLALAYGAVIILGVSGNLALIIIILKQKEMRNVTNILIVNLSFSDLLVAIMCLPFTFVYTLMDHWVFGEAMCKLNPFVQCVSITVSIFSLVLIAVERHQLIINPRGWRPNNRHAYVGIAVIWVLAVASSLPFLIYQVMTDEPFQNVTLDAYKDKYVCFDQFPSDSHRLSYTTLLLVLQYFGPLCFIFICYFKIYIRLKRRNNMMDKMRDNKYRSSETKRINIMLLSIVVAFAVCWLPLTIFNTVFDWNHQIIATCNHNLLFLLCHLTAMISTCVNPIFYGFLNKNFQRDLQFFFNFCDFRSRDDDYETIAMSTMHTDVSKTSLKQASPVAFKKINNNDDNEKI

The structures appear in SMILES notation. Some results are limits rather than exact numbers.
Further: assay procedure not described here.

Chain of Sodium-dependent dopamine transporter (Q01959 whole entry): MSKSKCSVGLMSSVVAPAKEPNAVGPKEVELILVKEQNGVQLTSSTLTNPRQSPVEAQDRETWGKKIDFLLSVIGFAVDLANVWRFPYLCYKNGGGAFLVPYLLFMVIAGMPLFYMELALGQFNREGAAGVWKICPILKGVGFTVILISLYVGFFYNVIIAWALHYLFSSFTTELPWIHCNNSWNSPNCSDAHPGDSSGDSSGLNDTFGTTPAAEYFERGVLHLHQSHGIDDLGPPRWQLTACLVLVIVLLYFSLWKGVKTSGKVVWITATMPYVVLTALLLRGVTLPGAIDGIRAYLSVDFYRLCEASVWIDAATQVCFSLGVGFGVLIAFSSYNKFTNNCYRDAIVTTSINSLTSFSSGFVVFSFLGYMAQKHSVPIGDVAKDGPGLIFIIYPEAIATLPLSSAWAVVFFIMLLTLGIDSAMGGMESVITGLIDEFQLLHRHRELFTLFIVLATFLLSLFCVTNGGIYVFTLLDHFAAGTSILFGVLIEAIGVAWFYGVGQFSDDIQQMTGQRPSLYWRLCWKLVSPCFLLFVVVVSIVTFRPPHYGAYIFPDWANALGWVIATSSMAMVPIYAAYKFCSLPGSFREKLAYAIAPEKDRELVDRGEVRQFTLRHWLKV
Chain of Motilin receptor (O43193 whole entry): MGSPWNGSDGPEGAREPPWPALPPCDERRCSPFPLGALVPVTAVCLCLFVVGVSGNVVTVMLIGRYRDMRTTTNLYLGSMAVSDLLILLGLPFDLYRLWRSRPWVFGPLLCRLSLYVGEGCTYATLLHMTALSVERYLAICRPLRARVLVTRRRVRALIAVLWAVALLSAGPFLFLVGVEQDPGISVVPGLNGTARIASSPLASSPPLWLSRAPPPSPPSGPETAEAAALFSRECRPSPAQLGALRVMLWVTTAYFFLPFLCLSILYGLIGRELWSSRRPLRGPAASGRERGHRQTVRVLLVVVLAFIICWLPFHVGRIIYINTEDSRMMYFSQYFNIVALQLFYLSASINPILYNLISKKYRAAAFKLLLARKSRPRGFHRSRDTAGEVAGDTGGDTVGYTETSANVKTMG
Chain of Beta-1 adrenergic receptor (P08588 whole entry): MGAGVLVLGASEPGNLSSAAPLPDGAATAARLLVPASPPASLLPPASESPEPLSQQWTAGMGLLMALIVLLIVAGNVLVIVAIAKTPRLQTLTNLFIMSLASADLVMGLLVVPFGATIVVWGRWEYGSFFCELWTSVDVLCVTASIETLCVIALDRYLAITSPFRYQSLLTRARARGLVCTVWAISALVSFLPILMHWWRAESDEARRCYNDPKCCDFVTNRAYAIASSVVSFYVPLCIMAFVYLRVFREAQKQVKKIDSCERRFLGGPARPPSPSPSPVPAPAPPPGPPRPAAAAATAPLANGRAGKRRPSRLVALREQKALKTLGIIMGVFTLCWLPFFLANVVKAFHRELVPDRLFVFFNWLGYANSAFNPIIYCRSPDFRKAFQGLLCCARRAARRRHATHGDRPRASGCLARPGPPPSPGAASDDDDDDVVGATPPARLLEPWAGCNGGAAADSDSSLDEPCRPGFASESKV
Chain of Growth hormone secretagogue receptor type 1 (Q92847 whole entry): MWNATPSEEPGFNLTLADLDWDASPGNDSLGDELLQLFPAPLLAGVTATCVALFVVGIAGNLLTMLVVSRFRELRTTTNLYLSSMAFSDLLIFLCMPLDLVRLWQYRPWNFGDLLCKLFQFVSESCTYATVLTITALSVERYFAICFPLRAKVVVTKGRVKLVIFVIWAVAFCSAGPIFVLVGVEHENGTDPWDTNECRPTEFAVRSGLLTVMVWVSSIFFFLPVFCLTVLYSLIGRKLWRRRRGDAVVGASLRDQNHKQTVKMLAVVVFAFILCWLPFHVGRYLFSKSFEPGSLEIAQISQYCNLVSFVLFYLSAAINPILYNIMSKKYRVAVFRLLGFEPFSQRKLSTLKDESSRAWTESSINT
T3 sequence (P62813 whole entry): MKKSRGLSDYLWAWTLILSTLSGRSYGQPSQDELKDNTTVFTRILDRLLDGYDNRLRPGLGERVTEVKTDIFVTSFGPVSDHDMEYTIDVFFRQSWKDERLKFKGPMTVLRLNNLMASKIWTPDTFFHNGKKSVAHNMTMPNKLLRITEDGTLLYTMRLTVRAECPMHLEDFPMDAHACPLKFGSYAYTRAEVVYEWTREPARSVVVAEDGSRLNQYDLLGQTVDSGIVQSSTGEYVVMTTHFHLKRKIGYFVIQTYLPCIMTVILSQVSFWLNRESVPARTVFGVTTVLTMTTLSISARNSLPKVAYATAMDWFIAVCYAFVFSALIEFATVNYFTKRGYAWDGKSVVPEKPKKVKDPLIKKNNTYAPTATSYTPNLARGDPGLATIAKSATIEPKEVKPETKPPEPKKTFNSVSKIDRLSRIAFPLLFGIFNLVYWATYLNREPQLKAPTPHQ
Chain of 5-hydroxytryptamine receptor 2B (P41595 whole entry): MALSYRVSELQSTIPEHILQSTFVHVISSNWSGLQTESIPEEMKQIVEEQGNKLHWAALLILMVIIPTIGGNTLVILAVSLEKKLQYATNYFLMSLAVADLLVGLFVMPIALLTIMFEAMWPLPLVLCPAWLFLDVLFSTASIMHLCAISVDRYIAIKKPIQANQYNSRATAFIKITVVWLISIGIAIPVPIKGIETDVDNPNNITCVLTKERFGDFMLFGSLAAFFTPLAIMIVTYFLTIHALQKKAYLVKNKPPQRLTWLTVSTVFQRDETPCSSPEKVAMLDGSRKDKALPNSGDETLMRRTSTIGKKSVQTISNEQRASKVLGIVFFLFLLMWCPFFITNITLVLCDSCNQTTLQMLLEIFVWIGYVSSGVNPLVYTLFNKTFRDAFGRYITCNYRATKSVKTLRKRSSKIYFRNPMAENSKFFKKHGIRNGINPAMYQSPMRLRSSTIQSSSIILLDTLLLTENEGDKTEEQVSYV
Chain of Sodium-dependent noradrenaline transporter (P23975 whole entry): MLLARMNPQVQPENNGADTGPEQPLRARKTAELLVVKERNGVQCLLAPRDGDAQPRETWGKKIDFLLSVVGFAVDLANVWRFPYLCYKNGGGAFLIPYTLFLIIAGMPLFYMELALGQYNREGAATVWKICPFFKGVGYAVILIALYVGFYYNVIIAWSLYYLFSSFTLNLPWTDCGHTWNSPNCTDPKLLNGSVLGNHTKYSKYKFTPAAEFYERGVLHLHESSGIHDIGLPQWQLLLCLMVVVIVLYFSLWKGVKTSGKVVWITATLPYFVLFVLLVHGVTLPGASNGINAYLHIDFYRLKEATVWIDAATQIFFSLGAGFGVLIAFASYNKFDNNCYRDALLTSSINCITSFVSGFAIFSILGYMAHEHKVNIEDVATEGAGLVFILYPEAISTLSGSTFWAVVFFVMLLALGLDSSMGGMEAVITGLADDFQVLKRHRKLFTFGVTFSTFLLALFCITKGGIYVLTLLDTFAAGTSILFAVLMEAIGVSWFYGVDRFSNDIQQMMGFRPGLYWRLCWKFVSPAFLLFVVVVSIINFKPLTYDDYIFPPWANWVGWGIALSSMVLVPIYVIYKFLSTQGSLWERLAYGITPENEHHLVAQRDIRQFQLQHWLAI

Turning to `CCN1CCC[C@H]1CNC(=O)c1cc(S(N)(=O)=O)ccc1OC` [LEVOSULPIRIDE], the concentration at half-maximal activity (AC50) in assay [1] is over 10 µM; in [2] it was over 30 µM; in assay [3] it was over 10 µM; in assay [4], over 30 µM; in assay [5], over 30 µM; in assay [6] it was over 10 µM. Moreover, the AC50 in assay [7] was over 10 µM; in [8] it was over 10 µM; in assay [9], over 30 µM; in assay [10], over 30 µM; in assay [11], over 10 µM; in assay [12] it was over 30 µM. Besides, the AC50 in assay [13] is over 30 µM; in assay [14] it was over 10 µM; in [15] it was over 10 µM; in assay [16], over 30 µM; in [17], over 30 µM.

Turning to `CCN(CC)CCOC(=O)c1ccc(N)cc1` [PROCAINE], the AC50 in assay [18] was over 30 µM; in assay [1] it was over 10 µM; in assay [2] it was over 30 µM; in assay [3], over 10 µM; in assay [4], over 30 µM; in [5] it was over 30 µM. Besides, the AC50 was over 10 µM in assay [6]; 8.7 µM in assay [7]; over 10 µM in assay [8]; over 30 µM in assay [9]; over 10 µM in assay [10]; over 10 µM in assay [11]. For the same molecule, the AC50 in assay [12] was over 30 µM; in assay [13], over 10 µM; in assay [14] it was over 10 µM; in assay [15], over 10 µM; in assay [16], over 10 µM; in [17] it was over 30 µM.

For `COc1c(C)c2c(c(O)c1C/C=C(\C)CCC(=O)OCCN1CCOCC1)C(=O)OC2` [MYCOPHENOLATE MOFETIL], the AC50 in [18], in [1], in [2], in assay [3], in assay [4] and in [5] was over 30 µM in each case. Also, the AC50 in [6], in assay [7], in assay [8], in [9], in assay [10] and in assay [11] was over 30 µM each time. The AC50 in assay [12] was over 30 µM; in [13], over 30 µM; in assay [14], over 30 µM; in assay [15], over 30 µM; in [16], 17 µM; in assay [17], over 30 µM.

For `Cc1c(O)c(=O)ccn1C` [DEFERIPRONE], the AC50 in assay [18], in assay [1], in [2], in assay [3], in assay [4] and in [5] was over 30 µM throughout. Besides, the AC50 in [6], in [7], in assay [8], in assay [9], in assay [10] and in [11] was over 30 µM throughout. The half-maximal activity concentration (AC50) in assay [12], in assay [13], in assay [14], in [15], in assay [16] and in [17] was over 30 µM in each case.

As for `CC(C)c1c(C(=O)Nc2ccccc2)c(-c2ccccc2)c(-c2ccc(F)cc2)n1CC[C@@H](O)C[C@@H](O)CC(=O)O` [ATORVASTATIN], the concentration at half-maximal activity (AC50) is over 30 µM in [18]; over 30 µM in assay [2]; over 10 µM in assay [3]; over 30 µM in assay [5]; over 10 µM in assay [6]; over 10 µM in [7]. The AC50 in assay [8] is over 10 µM; in [9], over 30 µM; in assay [10], over 10 µM; in [11] it was over 10 µM; in [12] it was over 30 µM; in [13] it was over 10 µM. The AC50 in assay [14] was over 10 µM; in assay [15], over 10 µM; in [16], over 10 µM; in assay [17], over 30 µM.

As to `COc1ccc2c(c1)c(CC(=O)OCC(=O)O)c(C)n2C(=O)c1ccc(Cl)cc1` [ACEMETACIN], the AC50 in [18], in [1], in assay [2], in assay [3], in assay [4] and in assay [5] was over 30 µM each time. Besides, the AC50 in [6], in [7], in [8], in [9], in [10] and in assay [11] was over 30 µM throughout. Further, the AC50 in assay [12], in assay [13], in assay [14], in assay [15], in assay [16] and in assay [17] was over 30 µM throughout.

Consider `CCCCN1CCCCC1C(=O)Nc1c(C)cccc1C` (stereo unspecified) [BUPIVACAINE], for which the AC50 in assay [18], in assay [1], in assay [2], in assay [3], in assay [4] and in [5] was over 30 µM throughout. Moreover, the AC50 in assay [6], in assay [7], in [8], in [9], in assay [11] and in [12] was over 30 µM each time. Further, the AC50 in assay [13], in assay [14], in assay [15] and in assay [16] was over 30 µM each time.

Consider `Cc1cc2c(OCC(CNC(C)(C)C)OC(=O)c3ccccc3)cccc2[nH]1` (stereo unspecified) [BOPINDOLOL], for which the AC50 was over 30 µM in assay [18]; 19 µM in [1]; 16 µM in assay [2]; over 30 µM in assay [3]; 12 µM in assay [4]; over 30 µM in [5]. Besides, the AC50 in assay [6] is over 30 µM; in [7], over 30 µM; in assay [8], over 30 µM; in [9] it was over 30 µM; in assay [10] it was 0.0064 µM; in assay [11], over 30 µM. Also, the AC50 is over 30 µM in [12]; 0.0048 µM in assay [13]; over 30 µM in assay [14]; 23 µM in assay [15]; over 30 µM in assay [16]; 10.3 µM in assay [17].

Consider `NC(=O)C[S+]([O-])C(c1ccccc1)c1ccccc1` (stereo unspecified) [MODAFINIL], for which the half-maximal activity concentration (AC50) is over 30 µM in [18]; over 10 µM in assay [1]; over 30 µM in assay [2]; over 10 µM in assay [3]; over 30 µM in [5]; over 10 µM in assay [6]. Moreover, the AC50 in assay [7] was over 10 µM; in assay [8] it was over 10 µM; in [9] it was over 30 µM; in [10] it was over 10 µM; in [11], over 10 µM; in [12], over 30 µM. For the same molecule, the AC50 in assay [13] was over 10 µM; in assay [14], over 10 µM; in assay [15], over 10 µM; in assay [16], over 30 µM; in [17], over 10 µM.
